{"source": "paper PMC12598805", "about": "“Crystal Structure–Activity Relationship of Some MeO Phenylacrylonitriles: Dual Antimicrobial–Cytotoxic Effects and in Silico Perspectives” (ChemistryOpen, 2025)", "assay_type_in_all_cases": "cell-based", "key": {"[1]": {"test_system": "Escherichia coli (ATCC 25922)", "assay": "Broth microdilution MIC", "settings": "ATCC25922, E.coli", "experimental": "(§1) Escherichia coli (ATCC 25922) […]\n(§2) ATCC: American Type Culture Collection; NRRL: Northern Regional Research Laboratory The compounds 2(a-c) obtained could only be completely solubilised with dimethyl sulphoxide (DMSO) and the highest possible stock solutions of 50 mg.mL-1 were prepared. […]\n(§3) 3.1. Determination of Minimum Inhibition Concentration (MIC)\n(§4) The minimum inhibition concentration (MIC) values of the compounds 2(a-c) against the test bacteria used in the study were determined according to the broth microdilution method.[1-2] MHB or SDB was used as test medium and bacterial and yeast suspensions were prepared at 0.5 Mc Farland concentration for each test bacteria. Double layer serial dilutions were prepared in \"U\" type 96-well microtiter plates. Medium+bacteria suspensions containing only medium in the first row, medium+bacteria in the second row and the final concentrations of the synthesised substances in the other rows between 25 mg.mL-1 and […] were added to the wells with a final volume of 200\n(§5) μL. Ampicillin, Kanamycin and Amphotericin B standard antibiotics were used as positive controls.\n(§6) Bacteria were incubated at 37±0.1 °C and C. albicans at 30±0.1 °C for 24-48 hours and the lowest concentration without growth was determined as MIC. Tests were performed in two parallel runs and mean values were given as a result. […]"}, "[2]": {"test_system": "Bacillus subtilis (ATCC-19659)", "assay": "MBC by sub-culture from wells without growth", "settings": "ATCC19659, B.subtilis", "experimental": "as §2, §3, §4, §5, §6"}, "[3]": {"test_system": "Bacillus subtilis (ATCC-19659)", "assay": "Broth microdilution MIC", "settings": "ATCC19659", "experimental": "as §2, §3, §4, §5, §6"}, "[4]": {"test_system": "Pseudomonas aeruginosa (ATCC 27853)", "assay": "Broth microdilution MIC", "settings": "ATCC27853, P.aeruginosa", "experimental": "(§7) Pseudomonas aeruginosa (ATCC 27853) […]\nas §2, §3, §4, §5, §6"}, "[5]": {"test_system": "Klebsiella pneumoniae (ATCC-70063)", "assay": "Agar diffusion, zone of inhibition", "settings": "K.pneumoniae, antibiotics at 5 mg mL^−1", "source_text": "(§8) The antibacterial and antifungal activities were reported utilizing the method described by the Clinical & Laboratory Standards Institute.^[ [31], [32] ^] Agar diffusion method was used to determine the antimicrobial activity of the synthesized substances. The media used were mueller hinton agar (MHA) for bacteria and sabouraud‐dextrose agar (SDA) for fungi (Merck), as recommended by the manufacturer.\n(§9) The synthesized compounds were initially investigated for their antimicrobial activity to elucidate the potential therapeutic utility against various pathogenic microbes using the agar plate diffusion method. The compounds were tested at a concentration of 50 mg mL^−1, and the antibiotics (ampicillin, kanamycin, and amphotericin B) were used at 5 mg mL^−1. […] K.pneumoniae and B.cereus were resistant to ampicillin, while they were susceptible to kanamycin with inhibition values of 30 and 26 mm, respectively. No antimicrobial activity of the compounds was observed against E.faecalis, S.typhimurium, K.pneumoniae, and for the fungus compared to Amphotericin B (20 mm). […]\nKlebsiella pneumoniae (ATCC-70063)\n(§10) ATCC: American Type Culture Collection; NRRL: Northern Regional Research Laboratory The compounds 2(a-c) obtained could only be completely solubilised with dimethyl sulphoxide (DMSO) and the highest possible stock solutions of 50 mg.mL-1 were prepared. To these wells 50 μl of the previously prepared substances were transferred using sterile micropipette tips. For comparison, Ampicillin and kanamycin antibiotics for bacteria and Amphotericin B antibiotics for fungus were used as positive controls and DMSO was used as negative control. The prepared petri plates were kept at +4°C for about 1 hour and then the bacterial cultures were incubated at 37°C for 18-24 hours and mould cultures at 27-30°C for 48-72 hours. The zones formed were measured millimetrically with callipers. The experiments were performed with three repetitions. […]"}, "[6]": {"test_system": "Micrococcus luteus (NRRL-B-1018)", "assay": "Agar diffusion, zone of inhibition", "settings": "M.luteus, antibiotics at 5 mg mL^−1", "source_text": "as §8, §9\n(§11) Micrococcus luteus (NRRL-B-1018) […]\nas §10"}, "[7]": {"test_system": "Staphylococcus aureus (ATCC 29213)", "assay": "Broth microdilution MIC", "settings": "ATCC29213, S.aureus", "experimental": "(§12) Staphylococcus aureus (ATCC 29213) […]\nas §2, §3, §4, §5, §6"}, "[8]": {"test_system": "Bacillus cereus (ATCC-10876)", "assay": "Agar diffusion, zone of inhibition", "settings": "B.cereus, antibiotics at 5 mg mL^−1", "source_text": "as §8\nThe synthesized compounds were initially investigated for their antimicrobial activity to elucidate the potential therapeutic utility against various pathogenic microbes using the agar plate diffusion method. The compounds were tested at a concentration of 50 mg mL^−1, and the antibiotics (ampicillin, kanamycin, and amphotericin B) were used at 5 mg mL^−1. […] K.pneumoniae and B.cereus were resistant to ampicillin, while they were susceptible to kanamycin with inhibition values of 30 and 26 mm, respectively. No antimicrobial activity of the compounds was observed against E.faecalis, S.typhimurium, K.pneumoniae, and for the fungus compared to Amphotericin B (20 mm).\nBacillus cereus (ATCC-10876) […]\nas §10"}, "[9]": {"test_system": "Enterococcus faecalis (ATCC 29212)", "assay": "Broth microdilution MIC", "settings": "ATCC29212, E.faecalis", "experimental": "(§13) Enterococcus faecalis (ATCC 29212) […]\nas §2, §3, §4, §5, §6"}, "[10]": {"test_system": "Enterococcus faecalis (ATCC 29212)", "assay": "MBC by sub-culture from wells without growth", "settings": "ATCC29212, E.faecalis", "experimental": "as §13, §2, §3, §4, §5, §6"}, "[11]": {"test_system": "Staphylococcus aureus (ATCC 29213)", "assay": "Agar diffusion, zone of inhibition", "settings": "S.aureus, antibiotics at 5 mg mL^−1", "source_text": "as §8, §9, §12, §10"}, "[12]": {"test_system": "Micrococcus luteus (NRRL-B-1018)", "assay": "MBC by sub-culture from wells without growth", "settings": "NRRLB1018, M.luteus", "experimental": "as §11, §2, §3, §4, §5\n(§14) Bacteria were incubated at 37±0.1 °C and C. albicans at 30±0.1 °C for 24-48 hours and the lowest concentration without growth was determined as MIC. Tests were performed in two parallel runs and mean values were given as a result. In order to estimate “the minimum bactericidal/fungicidal concentrations (MBC/MFC) of the synthesised acrylonitrile derivatives “needed to indicate […] killing of the original inoculum,” 10 μl was taken from the wells with no observed growth and further sub-cultured onto their agar media (MHA and SDA for bacterial and fungal strains, respectively).[3] […]"}, "[13]": {"test_system": "Escherichia coli (ATCC 25922)", "assay": "Agar diffusion, zone of inhibition", "settings": "antibiotics at 5 mg mL^−1", "source_text": "as §8, §9, §1, §10"}, "[14]": {"test_system": "Pseudomonas aeruginosa (ATCC 27853)", "assay": "Agar diffusion, zone of inhibition", "settings": "P.aeruginosa, antibiotics at 5 mg mL^−1", "source_text": "as §8, §9, §7, §10"}, "[15]": {"test_system": "Pseudomonas aeruginosa (ATCC 27853)", "assay": "MBC by sub-culture from wells without growth", "settings": "ATCC27853, P.aeruginosa", "experimental": "as §7, §2, §3, §4, §5, §14"}, "[16]": {"test_system": "Salmonella typhimurium (NRRL-B-4420)", "assay": "Agar diffusion, zone of inhibition", "settings": "Salmonella enterica; S.typhimurium; antibiotics at 5 mg mL^−1", "source_text": "as §8, §9\nSalmonella typhimurium (NRRL-B-4420) […]\nas §10"}, "[17]": {"test_system": "Staphylococcus aureus (ATCC 29213)", "assay": "MBC by sub-culture from wells without growth", "settings": "ATCC29213, S.aureus", "experimental": "as §12, §2, §3, §4, §5, §14"}, "[18]": {"test_system": "Escherichia coli (ATCC 25922)", "assay": "MBC by sub-culture from wells without growth", "settings": "ATCC25922, E.coli", "experimental": "as §1, §2, §3, §4, §5, §6"}, "[19]": {"test_system": "Bacillus subtilis (ATCC-19659)", "assay": "Agar diffusion, zone of inhibition", "settings": "B.subtilis, antibiotics at 5 mg mL^−1", "source_text": "as §8, §9, §10"}, "[20]": {"test_system": "Enterococcus faecalis (ATCC 29212)", "assay": "Agar diffusion, zone of inhibition", "settings": "ATCC29212, E.faecalis, antibiotics at 5 mg mL^−1", "source_text": "as §8, §9, §13, §10"}, "[21]": {"test_system": "Micrococcus luteus (NRRL-B-1018)", "assay": "Broth microdilution MIC", "settings": "NRRLB1018, M.luteus", "experimental": "as §11, §2, §3, §4, §5, §6"}}}
{"smiles": "CC1(C)S[C@@H]2[C@H](NC(=O)[C@H](N)c3ccccc3)C(=O)N2[C@H]1C(=O)O", "note": "[Ampicillin, reference compound]", "values": [{"measurement": "MIC", "setting": "[1]", "value": 31.2, "unit": "µg/mL"}, {"measurement": "MBC", "setting": "[2]", "value": 25, "unit": "mg/mL"}, {"measurement": "MIC", "setting": "[3]", "value": 12.5, "unit": "mg/mL"}, {"measurement": "MIC", "setting": "[4]", "value": 62.5, "unit": "µg/mL"}, {"measurement": "zone of inhibition", "setting": "[5]", "value": "resistant"}, {"measurement": "zone of inhibition at 5 mg/mL", "setting": "[5]; Klebsiella pneumoniae, ATCC70063", "value": "< 6", "unit": "mm"}, {"measurement": "zone of inhibition", "setting": "[6]", "value": "44 ± 5.66", "unit": "mm"}, {"measurement": "zone of inhibition at 5 mg/mL", "setting": "[6]; Micrococcus luteus, NRRLB1018", "value": 44, "unit": "mm"}, {"measurement": "MIC", "setting": "[7]", "value": 250, "unit": "µg/mL"}, {"measurement": "zone of inhibition", "setting": "[8]", "value": "resistant"}, {"measurement": "zone of inhibition at 5 mg/mL", "setting": "[8]; Bacillus cereus, ATCC10876", "value": "< 6", "unit": "mm"}, {"measurement": "MIC", "setting": "[9]", "value": 250, "unit": "µg/mL"}, {"measurement": "MBC", "setting": "[10]", "value": 250, "unit": "µg/mL"}, {"measurement": "zone of inhibition", "setting": "[11]", "value": "24 ± 1.41", "unit": "mm"}, {"measurement": "zone of inhibition at 5 mg/mL", "setting": "[11]; Staphylococcus aureus, ATCC29213", "value": 24, "unit": "mm"}, {"measurement": "MBC", "setting": "[12]", "value": 31.2, "unit": "µg/mL"}, {"measurement": "zone of inhibition", "setting": "[13]; E.coli", "value": "25 ± 0.71", "unit": "mm"}, {"measurement": "zone of inhibition at 5 mg/mL", "setting": "[13]; Escherichia coli, ATCC25922, E.coli", "value": 23, "unit": "mm"}, {"measurement": "zone of inhibition", "setting": "[14]", "value": "30 ± 0.71", "unit": "mm"}, {"measurement": "zone of inhibition at 5 mg/mL", "setting": "[14]; Pseudomonas aeruginosa, ATCC27853", "value": 30, "unit": "mm"}, {"measurement": "MBC", "setting": "[15]", "value": 62.5, "unit": "µg/mL"}, {"measurement": "zone of inhibition at 5 mg/mL", "setting": "[16]", "value": 25, "unit": "mm"}, {"measurement": "MBC", "setting": "[17]", "value": 250, "unit": "µg/mL"}, {"measurement": "MBC", "setting": "[18]", "value": 31.2, "unit": "µg/mL"}, {"measurement": "zone of inhibition", "setting": "[19]", "value": "32 ± 1.41", "unit": "mm"}, {"measurement": "zone of inhibition at 5 mg/mL", "setting": "[19]; Bacillus subtilis, ATCC19659", "value": 32, "unit": "mm"}, {"measurement": "zone of inhibition at 5 mg/mL", "setting": "[20]", "value": "34 ± 0.71", "unit": "mm"}, {"measurement": "MIC", "setting": "[21]", "value": 31.2, "unit": "µg/mL"}]}
